We go through eight compounds from US8258125B2, “HDL-boosting combination therapy complexes” (priority 2008, dated 2012).

The structures appear in SMILES notation. “Also recorded” adds a separate entry of the source. Like-named read-outs stand apart in the source and are kept apart here.

The subject of series [1] is Syrian Golden hamsters (F1B strain). Briefly: Lipid profile in Syrian Golden hamsters on hypercholesterolemic diet, combo drugs vs Crestor. It is filed as in vivo. The following applies: for effective doses found in this study: in combination, mg/70 kg man. As for the experimental part: Crestor is a new synthetic statin and considered “superstatin” because of its effectiveness at low doses. In clinical studies, Crestor is now found to be the new gold standard among the statins: a 5 mg Crestor dose is equivalent to 20 mg Lipitor, 40 mg Zocor, 80 mg Mevacor or Pravachol. Thus, the drug combination of Compound I and Compound II was compared with Crestor. The animal model was Syrian Golden hamsters (F1B strain, BioBreeders, Fitchburg Mass.). The animals approximately 8-10 weeks of age were fed a non-purified chow-based hypercholesterolemic diet (HCD) containing 10% coconut oil and 0.1% cholesterol by weight for 2 weeks prior to initiation of the experimental treatments, and remain on this diet for the remainder of the study. Compounds I and II were administered by oral gavage (0.2 mL), once a day for 14 days. At day 14, blood samples were obtained after an overnight fast.

The subject of series [2] is Rattus norvegicus, outbred Sprague Dawley. The following applies: combination, rat 14 days, mg/70 kg man.
Procedure: Age range at initiation of study was 8-14. […] Quarantine/acclimation was one week. Animals were randomized to groups based on weight. Number per cage was 2-3. Environmental conditions: Conventional microisolator caging. Room temperature was maintained between 19 and 23° C. Relative humidify was maintained at 55-80%. The light/dark cycle was maintained on a 12 hour cycle. Animals were exposed to the test substance daily for 14 days (2 weeks); and the doses were administered by gavage.
Gross necropsy was performed in the animals in the study. […] Collected tissues were placed in formalin overnight and then sectioned and cassetted the following day.
Blood samples were collected by cardiac puncture, 24 hours after the last treatment, as part of the necropsy protocol. Parameters examined include hematocrit (HCT), hemoglobin (Hgb), total erythrocyte count (RBC), total white cell count (WBC), differential count, and platelet estimate; calculated mean corpuscular volume (MCV), mean corpuscular hemoglobin (MCH), and mean corpuscular hemoglobin concentration (MCHC).
Also, at 16-18 hours after the last treatment, animals were placed in metabolic cages and urine was collected (just prior to necropsy). The urine samples were tested for presence of myoglobin.
Clinical Chemistry. Blood samples were collected by cardiac puncture, 24 hours after the last treatment, as part of the necropsy protocol. […]
The next series relates to Golden Syrian hamster. Kind of series: Evaluation of antilipidemic property in hamster animal model (2-week daily oral gavage). The series is classed as in vivo. The following applies: for LDL-C reduced by: 8-160 mg range; for raising HDL-C (in words): monotherapy; for reducing LDL-C by: repeat experiment, 5-20 mg dose range. The text has this:
Evaluation of antilipidemic property in animal. Golden Syrian hamster, 8-wk old (85-100 g) (Bio®F1B, Bio Breeders, Inc., Watertown, Mass.) was the animal model chosen for this study because of its similarities with humans in lipoprotein metabolism and atherosclerosis Moreover, the hamster has plasma cholesteryl ester transfer protein (CETP) similar to humans. Dietary fat saturation affects apolipoprotein gene expression and high-density lipoprotein size distribution in golden Syrian hamsters. The animals housed four per cage were fed […] Supreme Fortified Hamster diet ([…] Products, Inc. Chilton, Wis.), with one part ratio of Heath High Energy suet (Heath Mfg., Cooperville, Mich.); water ad libitum. The animals were fed this diet for 1 week, and then given the drug treatment for a 2-week duration. Drugs were administered by daily oral gavage using 4:6 PEG/Cremaphore suspension vehicle for the water-insoluble drugs (e.g., atorvastatin, lovastatin, simvastatin, and the fibrates); the water-soluble drugs (dihydroxy-acid salts, pravastatin) were dissolved in water. Equivalent doses, based on a 70 kg person, were administered in the hamster. […] Thus, the calculated final dose for a 100-gm hamster is 0.143 mg as well ([…] X a factor of “10”), formulated in a 0.25 ml solution for oral gavage administration. […] Body weights were recorded prior to drug administration and every other day during the test duration. At termination, blood was collected from anesthetized hamsters and the serum is separated by centrifugation. Total serum cholesterol was assayed using the Hitachi Diagnostics enzymatic kit for the determination of total cholesterol, LDL cholesterol, HDL cholesterol, and triglyceride (Analysis performed by: Lipid Analysis, Inc., Springfield, Ill.).

Another series can be described thus: Water solubility. The series is classed as physicochemical.
The conditions of series [3]: background description; cited from earlier work.
Where [4] appears, read: Equivalent Dose 8 mg (per 70 kg man), oral gavage 2 weeks, serum.
Where [5] appears, read: Equivalent Dose 160 mg (per 70 kg man), oral gavage 2 weeks, serum.
The mark [6] stands for this setting: repeat comparison, Equivalent Dose 5.0 mg.
Where [7] appears, read: repeat comparison, Equivalent Dose 10.0 mg.
Where [8] appears, read: repeat comparison, Equivalent Dose 20.0 mg.
[9] abbreviates: compared with the Compound I and II combination.

As to `CC(C)(Oc1ccc(CCNC(=O)c2ccc(Cl)cc2)cc1)C(=O)[O-].[Na+]` [Compound III], the “effective doses found in this study” value in series [1] was 30 to 40 mg. Also, the “maximum tolerated dose (MTD)” value in series [2] was 10,000 mg.
Regarding `CC[C@H](C)C(=O)O[C@H]1C[C@@H](C)C=C2C=C[C@H](C)[C@H](CC[C@@H](O)C[C@@H](O)CC(=O)[O-])[C@H]21.[Na+]` [Compound I], the “LDL-C reduced by” value in the series on Golden Syrian hamster is 41.4-59.2%. The “% Decrease On: HDL-C” value with Golden Syrian hamster (Equivalent Dose 8 mg) was determined as 25.2%; with Golden Syrian hamster (Equivalent Dose 160 mg), 32.2%; with Golden Syrian hamster (setting [6]), 5.6%; in the series with Golden Syrian hamster (setting [7]), 12.4%; in the series with Golden Syrian hamster (setting [8]) it was 20.7%. Further, the “% Decrease On: LDL-C” value in the series on Golden Syrian hamster (Equivalent Dose 8 mg) stood at 41.4%; in the series on Golden Syrian hamster (Equivalent Dose 160 mg), 29.2%; with Golden Syrian hamster (setting [6]), 14.7%; in the series on Golden Syrian hamster (setting [7]), 23.7%; with Golden Syrian hamster (setting [8]), 22.4%. Moreover, the “% Decrease On: Triglyceride” value with Golden Syrian hamster (Equivalent Dose 8 mg) is 28.6%; with Golden Syrian hamster (Equivalent Dose 160 mg) it was 33.7%; in the series with Golden Syrian hamster (setting [6]) it was 4.5%; with Golden Syrian hamster (setting [7]) it was 6.8%; in the series with Golden Syrian hamster (setting [8]), 23.6%. For the same compound, the “% Decrease On: Total Cholesterol” value with Golden Syrian hamster (setting [4]) was found to be 30.3%; with Golden Syrian hamster (setting [5]), 40.7%; in the series on Golden Syrian hamster (setting [6]), 14.8%; in the series on Golden Syrian hamster (setting [7]) it was 12.6%; with Golden Syrian hamster (setting [8]), 20.9%. In the series on Golden Syrian hamster (equivalent dose, antilipidemic activity), the “effective at a dose as low as” value came out at 5 mg. The “raising HDL-C (in words)” value in the series with Golden Syrian hamster was “not effective in raising HDL-C”. Also, the “reducing LDL-C by” value in the series with Golden Syrian hamster was 22.4-23.7%. Besides, in series [1], the “effective doses found in this study” value lay within 1 to 3 mg.
Take `CC(C)c1nc(N(C)S(C)(=O)=O)nc(-c2ccc(F)cc2)c1/C=C/[C@@H](O)C[C@@H](O)CC(=O)O` [Crestor]: in series [1] (setting [9]), the “HDL level (in words)” value was “did not boost HDL”; the “controlling cholesterol and LDL (in words)” value was “less effective in controlling cholesterol and LDL”.
As to `CC(C)c1c(C(=O)Nc2ccccc2)c(-c2ccccc2)c(-c2ccc(F)cc2)n1CC[C@@H](O)C[C@@H](O)CC(=O)O` [Lipitor, Atorvastatin], in the series with Golden Syrian hamster, the “LDL-C reduced by” value is 28.5-54.4%, the “raising HDL-C (in words)” value is listed as “not effective in raising HDL-C; also recorded: did not show any increase in HDL-C” and the “reducing LDL-C by” value is reported as 8.9-17.9%. Besides, in the series on Golden Syrian hamster (Equivalent Dose 8 mg), the “% Decrease On: HDL-C” value came to 33.3%, the “% Decrease On: LDL-C” value stood at 28.5% and the “% Decrease On: Triglyceride” value is given as 35.8%. Further, the “% Decrease On: Total Cholesterol” value in the series on Golden Syrian hamster (setting [4]) is 28.6%. Further, in the series with Golden Syrian hamster (Equivalent Dose 160 mg), the “% Decrease On: HDL-C” value was determined as 30.7%, the “% Decrease On: LDL-C” value turned out to be 54.4% and the “% Decrease On: Triglyceride” value is 53.0%. For the same compound, in the series with Golden Syrian hamster (setting [5]), the “% Decrease On: Total Cholesterol” value is reported as 43.0%. Besides, in the series on Golden Syrian hamster (setting [7]), the “% Decrease On: HDL-C” value is listed as 20.7%, the “% Decrease On: LDL-C” value is 17.9%, the “% Decrease On: Total Cholesterol” value was found to be 18.2% and the “% Decrease On: Triglyceride” value is 5.0%. Also, in the series on Golden Syrian hamster (setting [8]), the “% Decrease On: HDL-C” value stood at 15.9%, the “% Decrease On: LDL-C” value was 8.9%, the “% Decrease On: Total Cholesterol” value was determined as 12.3% and the “% Decrease On: Triglyceride” value was determined as 4.8%.
On to `CC[C@H](C)C(=O)O[C@H]1C[C@@H](C)C=C2C=C[C@H](C)[C@H](CC[C@@H]3C[C@@H](O)CC(=O)O3)[C@H]21` [Mevacor, Lovastatin], for which the “% Decrease On: HDL-C” value in the series on Golden Syrian hamster (Equivalent Dose 8 mg) amounted to 20.4%; in the series on Golden Syrian hamster (Equivalent Dose 160 mg) it was 26.7%. The “% Decrease On: LDL-C” value was determined as 22.4% with Golden Syrian hamster (Equivalent Dose 8 mg) and 54.4% in the series with Golden Syrian hamster (Equivalent Dose 160 mg). Besides, the figures for the “% Decrease On: Triglyceride” value in the series on Golden Syrian hamster (Equivalent Dose 8 mg) and in the series on Golden Syrian hamster (Equivalent Dose 160 mg) were 21.8% and 34.4%, respectively. The “% Decrease On: Total Cholesterol” value in the series on Golden Syrian hamster (setting [4]) was determined as 19.4%; in the series on Golden Syrian hamster (setting [5]) it was 36.6%. Further, the “raising HDL-C (in words)” value in the series on Golden Syrian hamster was “did not show any increase in HDL-C”. Moreover, the solubility in water entry in the series “Water solubility” is given as “not water-soluble”; in series [3], “insoluble in water”.
As for `CC[C@H](C)C(=O)O[C@H]1C[C@H](O)C=C2C=C[C@H](C)[C@H](CC[C@@H](O)C[C@@H](O)CC(=O)O)[C@H]21` [Pravachol, Pravastatin], in the series with Golden Syrian hamster (Equivalent Dose 8 mg), the “% Decrease On: HDL-C” value came out at 20.4%, the “% Decrease On: LDL-C” value came out at 29.9% and the “% Decrease On: Triglyceride” value amounted to 18.8%. Further, the “% Decrease On: Total Cholesterol” value in the series on Golden Syrian hamster (setting [4]) came out at 22.4%. Besides, in the series with Golden Syrian hamster (Equivalent Dose 160 mg), the “% Decrease On: HDL-C” value came out at 17.3%, the “% Decrease On: LDL-C” value is 33.3% and the “% Decrease On: Triglyceride” value came out at 25.9%. In addition, the “% Decrease On: Total Cholesterol” value with Golden Syrian hamster (setting [5]) came out at 23.0%. In the series on Golden Syrian hamster, the “raising HDL-C (in words)” value is “did not show any increase in HDL-C”.
As to `CCC(C)(C)C(=O)O[C@H]1C[C@@H](C)C=C2C=C[C@H](C)[C@H](CC[C@@H]3C[C@@H](O)CC(=O)O3)[C@H]21` [Zocor, Simvastatin], in the series with Golden Syrian hamster (Equivalent Dose 8 mg), the “% Decrease On: HDL-C” value came out at 12.6%, the “% Decrease On: LDL-C” value was determined as 5.4% and the “% Decrease On: Triglyceride” value is given as 23.4%. Also, the “% Decrease On: Total Cholesterol” value in the series on Golden Syrian hamster (setting [4]) is listed as 9.5%. In addition, in the series on Golden Syrian hamster (Equivalent Dose 160 mg), the “% Decrease On: HDL-C” value was 30.7%, the “% Decrease On: LDL-C” value came out at 54.4% and the “% Decrease On: Triglyceride” value came out at 43.0%. Besides, in the series on Golden Syrian hamster (setting [5]), the “% Decrease On: Total Cholesterol” value is given as 40.7%.
Regarding `O=C(O)c1cccnc1` [niacin, 3-pyridine carboxylic acid], the solubility in water result in the series “Water solubility” is listed as “not soluble in water”.
